Test results reported in patent US10125098B2, “Therapeutic compounds and methods of use thereof” (GENENTECH, INC., priority 2014, dated 2018).
Where two headings read alike, the source gives them in different places.

Experiments:
hNav1.7 = molecular target: T1, hNav1.7 (Homo sapiens, UniProt Q15858); assay: Tritiated compound binding (LBA) to membranes from cells expressing hNav1.7 and the β1 subunit, competitive binding; details: competitive binding vs 100 pM [3H]compound, 18 h, room temperature, membranes with hNav1.7 and β1 subunit
T1 construct: expressed in transfected cells
T1 sequence (Q15858 1-1977 isoform Q15858-3): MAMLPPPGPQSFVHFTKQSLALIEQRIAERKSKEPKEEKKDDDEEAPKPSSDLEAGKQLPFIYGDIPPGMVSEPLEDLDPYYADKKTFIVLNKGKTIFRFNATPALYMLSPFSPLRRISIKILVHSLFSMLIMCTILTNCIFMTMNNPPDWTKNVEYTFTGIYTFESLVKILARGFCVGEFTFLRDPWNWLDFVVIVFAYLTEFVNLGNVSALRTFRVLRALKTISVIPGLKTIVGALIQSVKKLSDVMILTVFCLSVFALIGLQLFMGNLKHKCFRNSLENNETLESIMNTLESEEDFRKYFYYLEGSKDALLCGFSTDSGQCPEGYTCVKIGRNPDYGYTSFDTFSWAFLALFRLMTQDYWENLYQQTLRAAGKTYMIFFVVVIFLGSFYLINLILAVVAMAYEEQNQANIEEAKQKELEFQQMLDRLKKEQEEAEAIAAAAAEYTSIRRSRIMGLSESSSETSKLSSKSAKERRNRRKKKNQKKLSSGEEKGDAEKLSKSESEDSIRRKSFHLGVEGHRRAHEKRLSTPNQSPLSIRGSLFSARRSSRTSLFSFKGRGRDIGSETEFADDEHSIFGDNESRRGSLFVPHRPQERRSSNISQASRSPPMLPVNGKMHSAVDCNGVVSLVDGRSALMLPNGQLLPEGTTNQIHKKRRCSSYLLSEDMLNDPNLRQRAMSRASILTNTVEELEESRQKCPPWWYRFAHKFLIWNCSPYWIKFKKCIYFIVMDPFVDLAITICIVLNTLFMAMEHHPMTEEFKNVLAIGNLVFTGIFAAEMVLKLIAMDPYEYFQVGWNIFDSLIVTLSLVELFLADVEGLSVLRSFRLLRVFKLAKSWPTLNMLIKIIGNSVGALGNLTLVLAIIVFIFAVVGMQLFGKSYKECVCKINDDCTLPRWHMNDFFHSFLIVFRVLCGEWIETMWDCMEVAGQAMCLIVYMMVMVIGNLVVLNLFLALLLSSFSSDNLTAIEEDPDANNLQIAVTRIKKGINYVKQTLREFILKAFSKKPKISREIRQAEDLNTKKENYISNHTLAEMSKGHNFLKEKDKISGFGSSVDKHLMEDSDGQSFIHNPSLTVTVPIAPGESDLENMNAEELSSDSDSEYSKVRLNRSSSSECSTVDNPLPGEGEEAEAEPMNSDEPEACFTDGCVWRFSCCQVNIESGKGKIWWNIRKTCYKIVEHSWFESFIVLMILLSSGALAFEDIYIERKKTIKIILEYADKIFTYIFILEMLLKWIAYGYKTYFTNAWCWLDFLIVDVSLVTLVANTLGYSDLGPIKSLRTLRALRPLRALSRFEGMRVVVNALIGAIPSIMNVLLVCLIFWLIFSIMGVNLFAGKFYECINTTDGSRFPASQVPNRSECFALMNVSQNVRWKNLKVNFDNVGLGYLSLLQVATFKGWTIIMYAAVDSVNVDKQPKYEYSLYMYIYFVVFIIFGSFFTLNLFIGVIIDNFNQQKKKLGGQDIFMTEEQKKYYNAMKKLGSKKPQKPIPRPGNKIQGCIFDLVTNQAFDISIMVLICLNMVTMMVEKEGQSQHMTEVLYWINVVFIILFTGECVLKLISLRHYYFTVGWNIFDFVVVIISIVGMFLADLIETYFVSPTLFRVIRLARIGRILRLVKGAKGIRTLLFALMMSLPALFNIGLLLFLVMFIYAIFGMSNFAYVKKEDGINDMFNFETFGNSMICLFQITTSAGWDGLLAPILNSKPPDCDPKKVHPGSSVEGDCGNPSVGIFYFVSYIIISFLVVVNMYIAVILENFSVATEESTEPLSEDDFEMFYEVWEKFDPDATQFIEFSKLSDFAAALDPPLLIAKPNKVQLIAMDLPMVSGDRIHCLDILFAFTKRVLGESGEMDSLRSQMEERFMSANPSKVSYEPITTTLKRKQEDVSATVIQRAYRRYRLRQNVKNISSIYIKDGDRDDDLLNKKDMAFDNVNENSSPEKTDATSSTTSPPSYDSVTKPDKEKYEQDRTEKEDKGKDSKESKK
T1 sequence (Q07699 19-218 partner): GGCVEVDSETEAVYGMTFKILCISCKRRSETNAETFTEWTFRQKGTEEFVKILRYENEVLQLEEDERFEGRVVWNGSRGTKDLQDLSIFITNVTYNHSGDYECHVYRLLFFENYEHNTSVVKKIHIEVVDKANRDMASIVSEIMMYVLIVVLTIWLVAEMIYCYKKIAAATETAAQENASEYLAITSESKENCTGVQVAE
Method in brief: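 Competitive displacement of 100 pM [3H]compound (tritiated methyl analogue of formula (I)) from hNav1.7/β1 membranes, 18 h at room temperature in NaCl/Tris pH 7.4 buffer containing 0.01% BSA. 1 μM unlabeled compound set non-specific binding. Bound label quantified by scintillation after filtration; 4-parameter fit gave IC50.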

human NaV1.7 = molecular target: T2, human NaV1.7 (Homo sapiens, UniProt Q15858); assay: Patch voltage clamp electrophysiology assay (EP), NaV1.7; format: cell-based; details: HEK-293 cells stably expressing NaV1.7 with β1 subunit; whole-cell patch clamp, membrane potential −60 mV (inactivated state)
T2 construct: permanently transfected with an expression vector containing the full-length cDNA coding for the desired human sodium channel α-subunit; expressed in transfected cells; host or cells: HEK-293
T2 sequence (Q15858 1-1977 isoform Q15858-3): as the sequence (Q15858 1-1977 isoform Q15858-3) above
T2 sequence (Q07699 19-218 partner): as the sequence (Q07699 19-218 partner) above
Method in brief: (§1)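 Percent block is the drop in sodium current after compound wash-on, measured by a test pulse following 20 ms at −150 mV from a −60 mV inactivating holding potential.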

NaV1.5 = molecular target: T3, NaV1.5 (Homo sapiens, UniProt Q14524); assay: Patch voltage clamp electrophysiology assay (EP), NaV1.5; format: cell-based
T3 construct: permanently transfected with an expression vector containing the full-length cDNA coding for the desired human sodium channel α-subunit; expressed in transfected cells; host or cells: HEK-293
T3 sequence (Q14524 whole entry): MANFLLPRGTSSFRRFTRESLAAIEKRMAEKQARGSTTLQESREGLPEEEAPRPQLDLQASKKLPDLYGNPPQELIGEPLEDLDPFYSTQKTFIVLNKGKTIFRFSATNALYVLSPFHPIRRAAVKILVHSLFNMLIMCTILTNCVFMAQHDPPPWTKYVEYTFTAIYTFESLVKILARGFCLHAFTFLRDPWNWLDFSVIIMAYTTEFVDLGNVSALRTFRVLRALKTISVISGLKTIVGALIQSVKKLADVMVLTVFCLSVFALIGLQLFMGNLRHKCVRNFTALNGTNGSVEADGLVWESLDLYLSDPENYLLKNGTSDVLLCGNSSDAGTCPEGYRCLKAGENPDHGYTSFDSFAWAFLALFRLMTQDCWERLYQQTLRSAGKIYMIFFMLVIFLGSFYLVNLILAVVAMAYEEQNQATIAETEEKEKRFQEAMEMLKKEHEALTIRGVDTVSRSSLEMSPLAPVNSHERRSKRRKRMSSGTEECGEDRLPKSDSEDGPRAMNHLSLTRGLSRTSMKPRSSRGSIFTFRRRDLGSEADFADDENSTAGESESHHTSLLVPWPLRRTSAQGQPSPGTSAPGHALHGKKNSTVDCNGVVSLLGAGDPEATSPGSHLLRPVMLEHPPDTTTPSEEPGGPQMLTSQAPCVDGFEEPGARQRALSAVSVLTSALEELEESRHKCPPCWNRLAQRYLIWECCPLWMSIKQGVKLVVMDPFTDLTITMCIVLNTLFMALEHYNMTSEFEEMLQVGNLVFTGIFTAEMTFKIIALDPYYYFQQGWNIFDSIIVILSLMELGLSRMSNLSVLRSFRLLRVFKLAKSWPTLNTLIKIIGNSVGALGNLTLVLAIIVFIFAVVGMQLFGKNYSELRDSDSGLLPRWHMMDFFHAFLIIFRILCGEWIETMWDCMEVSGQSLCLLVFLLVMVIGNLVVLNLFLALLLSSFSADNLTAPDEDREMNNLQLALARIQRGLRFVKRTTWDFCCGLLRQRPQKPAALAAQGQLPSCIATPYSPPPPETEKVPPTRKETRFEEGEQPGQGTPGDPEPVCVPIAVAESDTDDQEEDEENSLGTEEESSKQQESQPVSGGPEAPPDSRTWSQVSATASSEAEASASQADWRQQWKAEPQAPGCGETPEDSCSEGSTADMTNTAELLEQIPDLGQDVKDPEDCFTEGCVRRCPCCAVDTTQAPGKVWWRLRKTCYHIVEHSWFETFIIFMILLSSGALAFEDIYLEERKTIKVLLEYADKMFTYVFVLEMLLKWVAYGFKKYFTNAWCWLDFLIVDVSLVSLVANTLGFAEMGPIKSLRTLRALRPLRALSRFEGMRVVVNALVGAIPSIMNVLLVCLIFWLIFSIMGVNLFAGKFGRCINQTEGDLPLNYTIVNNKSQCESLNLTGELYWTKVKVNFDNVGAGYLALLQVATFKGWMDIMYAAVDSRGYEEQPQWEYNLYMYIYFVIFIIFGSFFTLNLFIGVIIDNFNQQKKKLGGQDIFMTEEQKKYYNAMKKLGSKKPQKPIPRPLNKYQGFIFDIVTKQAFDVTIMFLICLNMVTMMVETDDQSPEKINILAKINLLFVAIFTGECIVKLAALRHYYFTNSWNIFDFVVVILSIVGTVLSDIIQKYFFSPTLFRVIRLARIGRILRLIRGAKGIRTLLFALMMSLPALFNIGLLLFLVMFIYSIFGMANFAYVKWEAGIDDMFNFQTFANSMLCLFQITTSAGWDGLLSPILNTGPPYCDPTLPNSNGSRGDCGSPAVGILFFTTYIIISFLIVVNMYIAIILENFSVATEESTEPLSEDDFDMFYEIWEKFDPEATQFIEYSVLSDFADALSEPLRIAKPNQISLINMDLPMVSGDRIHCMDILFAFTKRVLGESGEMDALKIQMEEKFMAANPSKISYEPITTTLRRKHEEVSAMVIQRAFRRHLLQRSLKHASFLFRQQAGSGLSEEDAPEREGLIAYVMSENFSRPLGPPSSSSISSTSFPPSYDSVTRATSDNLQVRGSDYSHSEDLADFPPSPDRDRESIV
Method in brief: as §1

[1] = HEK-293 cells stably expressing NaV1.5 with β1 subunit, whole-cell patch clamp, membrane potential −60 mV (inactivated state), read-out: Nav1.5
[2] = human, HEK-293 cells stably expressing human NaV1.5 with β1 subunit, pH 7.4, HEK-293 cells stably expressing NaV1.5 with β1 subunit, whole-cell patch clamp, membrane potential −60 mV (inactivated state)

Compound | IC50 (hNav1.7) | IC50 (human NaV1.7) | IC50 (NaV1.5; [1]) | IC50 (NaV1.5; [2]) | IC50 (NaV1.5)
O=C(O)[C@@H]1C[C@@H](F)CN1C(=O)c1cc(C2CC2)c(OCC2(F)CCN(Cc3cc(C(F)(F)F)ccc3Cl)CC2)cc1F [Example 106, (2S,4R)-1-(4-((1-(2-chloro-5-(trifluoromethyl)benzyl)-4-fluoropiperidin-4-yl)methoxy)-5-cyclopropyl-2-fluorobenzoyl)-4-fluoropyrrolidine-2-carboxylic acid] | 27 nM | 130 nM | 21000 nM | – | –
CC(C)Nc1ccc(F)cc1CN1CCC(COc2cc(F)c(C(=O)N3C[C@H](F)C[C@H]3C(=O)O)cc2C2CC2)CC1 [Example 107, (2S,4R)-1-(5-cyclopropyl-2-fluoro-4-((1-(5-fluoro-2-(isopropylamino)benzyl)-piperidin-4-yl)methoxy)benzoyl)-4-fluoropyrrolidine-2-carboxylic acid] | 39 nM | 730 nM | 12000 nM | – | –
O=C(O)[C@@H]1C[C@@H](F)CN1C(=O)c1cc(C2CC2)c(OCC2CCN(Cc3cc(F)c(Cl)cc3Cl)CC2)cc1F [Example 108, (2S,4R)-1-(5-cyclopropyl-4-((1-(2,4-dichloro-5-fluorobenzyl)piperidin-4-yl)methoxy)-2-fluorobenzoyl)-4-fluoropyrrolidine-2-carboxylic acid] | 17 nM | 220 nM | 9600 nM | – | –
CC(C)Oc1ncc(CN2CCC(F)(COc3cc(F)c(C(=O)N4C[C@H](F)C[C@H]4C(=O)O)cc3C3CC3)CC2)cc1Cl [Example 109, (2S,4R)-1-(4-((1-((5-chloro-6-isopropoxypyridin-3-yl)methyl)-4-fluoropiperidin-4-yl)methoxy)-5-cyclopropyl-2-fluorobenzoyl)-4-fluoropyrrolidine-2-carboxylic acid] | 51 nM | 890 nM | – | ≥ 30000 nM | –
O=C(NC(C(=O)O)C1CCC1)c1cc(C2CC2)c(OCC2(F)CCN(Cc3cc(C(F)(F)F)ccc3Cl)CC2)cc1F (stereo not drawn) [Example 110, 2-(4-((1-(2-chloro-5-(trifluoromethyl)benzyl)-4-fluoropiperidin-4-yl)methoxy)-5-cyclopropyl-2-fluorobenzamido)-2-cyclobutyl acetic acid] | 370 nM | 10000 nM | 10000 nM | – | –
C[C@@H]1[C@@H](C(=O)O)N(C(=O)c2cc(C3CC3)c(OCC3(F)CCN(Cc4cc(C(F)(F)F)ccc4Cl)CC3)cc2F)C[C@@H]1F [Example 111, (2S,3R,4R)-1-(4-((1-(2-chloro-5-(trifluoromethyl)benzyl)-4-fluoropiperidin-4-yl)methoxy)-5-cyclopropyl-2-fluorobenzoyl)-4-fluoro-3-methylpyrrolidine-2-carboxylic acid] | 36 nM | 230 nM | 14000 nM | – | –
O=C(O)[C@@H]1CCCN1C(=O)c1cc(C2CC2)c(OC2CCN(Cc3cc(Cl)cc(Cl)c3)CC2)cc1F [Example 112, (S)-1-(5-cyclopropyl-4-(1-(3,5-dichlorobenzyl)piperidin-4-yloxy)-2-fluorobenzoyl)pyrrolidine-2-carboxylic acid] | 520 nM | 2000 nM | – | ≥ 30000 nM | –
O=C(O)[C@@H]1CCCN1C(=O)c1cc(C2CC2)c(CN2CC(Oc3cc(Cl)cc(Cl)c3)C2)cc1F [Example 122, (5-cyclopropyl-4-((3-(3,5-dichlorophenoxy)azetidin-1-yl)methyl)-2-fluorobenzoyl)-L-proline] | 430 nM | 2000 nM | – | ≥ 30000 nM | –
O=C(O)[C@@H]1CC2(CC2)CN1C(=O)c1cc(C2CC2)c(OCC2(F)CCN(Cc3ccc(C(F)(F)F)cc3Cl)CC2)cc1F [Example 124, (S)-5-(4-((1-(2-chloro-4-(trifluoromethyl)benzyl)-4-fluoropiperidin-4-yl)methoxy)-5-cyclopropyl-2-fluorobenzoyl)-5-azaspiro[2.4]heptane-6-carboxylic acid] | 400 nM | 1500 nM | – | – | 12000 nM
O=C(O)[C@@H]1C[C@@H](F)CN1C(=O)c1cc(C2CC2)c(OCC2(F)CCN(Cc3ccc(C(F)(F)F)cc3Cl)CC2)cc1F [Example 127, (2S, 4R)-1-(4-((1-(2-chloro-4-(trifluoromethyl)benzyl)-4-fluoropiperidin-4-yl)methoxy)-5-cyclopropyl-2-fluorobenzoyl)-4-fluoropyrrolidine-2-carboxylic acid] | 120 nM | 400 nM | 13000 nM | – | –
O=C(O)[C@@H]1C[C@@H](F)CN1C(=O)c1cc(C2CC2)c(OCC2(F)CCN(Cc3ccc(F)c(Cl)c3)CC2)cc1F [Example 128, (2S,4R)-1-(4-((1-(3-chloro-4-fluorobenzyl)-4-fluoropiperidin-4-yl)methoxy)-5-cyclopropyl-2-fluorobenzoyl)-4-fluoropyrrolidine-2-carboxylic acid] | 87 nM | 710 nM | – | ≥ 30000 nM | –
CC(c1cc(Cl)cc(Cl)c1)N1CCC(F)(COc2cc(F)c(C(=O)N3C[C@H](F)C[C@H]3C(=O)O)cc2C2CC2)CC1 (stereo partly drawn) [Example 129, (2S,4R)-1-(5-cyclopropyl-4-((1-(1-(3,5-dichlorophenyl)ethyl)-4-fluoropiperidin-4-yl)methoxy)-2-fluorobenzoyl)-4-fluoropyrrolidine-2-carboxylic acid] | 22 nM | 160 nM | 9400 nM | – | –
COC[C@H](c1cc(Cl)cc(Cl)c1)N1CCC(COc2cc(F)c(C(=O)N3C[C@H](F)C[C@H]3C(=O)O)cc2C2CC2)CC1 [Example 130, (2S,4R)-1-(5-cyclopropyl-4-((1-((S)-1-(3,5-dichlorophenyl)-2-methoxyethyl)piperidin-4-yl)methoxy)-2-fluorobenzoyl)-4-fluoropyrrolidine-2-carboxylic acid] | 27 nM | 160 nM | 14000 nM | – | –
COC[C@@H](c1cc(Cl)cc(Cl)c1)N1CCC(COc2cc(F)c(C(=O)N3C[C@H](F)C[C@H]3C(=O)O)cc2C2CC2)CC1 [Example 131, (2S,4R)-1-(5-cyclopropyl-4-((1-((R)-1-(3,5-dichlorophenyl)-2-methoxyethyl)piperidin-4-yl)methoxy)-2-fluorobenzoyl)-4-fluoropyrrolidine-2-carboxylic acid] | 28 nM | 250 nM | 18000 nM | – | –
O=C(O)[C@@H]1COC(=O)N1C(=O)c1cc(C2CC2)c(OCC23CC4CC(CC(C4)C2)C3)cc1F [Example 133, (S)-3-(4-(adamantan-1-ylmethoxy)-5-cyclopropyl-2-fluorobenzoyl)-2-oxooxazolidine-4-carboxylic acid] | 1400 nM | 18000 nM | 9400 nM | – | –
O=C(O)[C@@H]1CCCN1C(=O)c1cc(C2CC2)c(COc2cc(Cl)cc(Cl)c2)s1 [Example 134, (S)-1-(4-cyclopropyl-5-((3,5-dichlorophenoxy)methyl)thiophene-2-carbonyl)pyrrolidine-2-carboxylic acid] | 72 nM | 630 nM | 7100 nM | – | –
C[C@]1(COc2cc(F)c(C(=O)N3CCC[C@H]3C(=O)O)cc2C2CC2)CCN(c2cc(C(F)(F)F)c(Cl)cn2)C1 [Example 135, (S)-1-(4-(((S)-1-(5-chloro-4-(trifluoromethyl)pyridin-2-yl)-3-methylpyrrolidin-3-yl)methoxy)-5-cyclopropyl-2-fluorobenzoyl)pyrrolidine-2-carboxylic acid] | 390 nM | 2600 nM | – | ≥ 30000 nM | –
